Data taken from ChEMBL document CHEMBL1201862, “PubChem BioAssay data set” (2004).
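Cells were grown in 96-well plates and exposed to each compound for 48 hours at five concentrations; endpoints were interpolated linearly between bracketing concentrations, or set to the highest concentration if not reached. The concentration for 50% growth inhibition is given as GI50.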 The source made the active and inactive calls. Rule as the data show it: active = GI50 up to about 1.1 µM and inactive = higher.

What was measured:
Experiment in all cases: NCI-60 cell line screen, 48 h
HCT-15 = tested on: HCT-15
DLD-1 = tested on: DLD-1
OVCAR-8 = tested on: OVCAR-8
UACC-257 = tested on: UACC-257
SNB-75 = tested on: SNB-75
HT-29 = tested on: HT-29
SK-MEL-5 = tested on: SK-MEL-5
OVCAR-4 = tested on: OVCAR-4
KM12 = tested on: KM12
RPMI-8226 = tested on: RPMI-8226
NCI-H226 = tested on: NCI-H226
HOP-18 = tested on: HOP-18
HCC 2998 = tested on: HCC 2998
NCI-H23 = tested on: NCI-H23
SW-620 = tested on: SW-620
MOLT-4 = tested on: MOLT-4
OVCAR-3 = tested on: OVCAR-3
CAKI-1 = tested on: CAKI-1
KM-20L2 = tested on: KM-20L2
UACC-62 = tested on: UACC-62
U-251 = tested on: U-251
SR = tested on: SR
SK-OV-3 = tested on: SK-OV-3
A549 = tested on: A549
SK-MEL-28 = tested on: SK-MEL-28
HCT-116 = tested on: HCT-116
SF-539 = tested on: SF-539
NCI-H522 = tested on: NCI-H522
LOX IMVI = tested on: LOX IMVI
HOP-92 = tested on: HOP-92
EKVX = tested on: EKVX
SN12C = tested on: SN12C
OVCAR-5 = tested on: OVCAR-5
SK-MEL-2 = tested on: SK-MEL-2
IGROV-1 = tested on: IGROV-1
Malme-3M = tested on: Malme-3M
M19-MEL = tested on: M19-MEL
RXF 393 = tested on: RXF 393
HL-60 = tested on: HL-60
UO-31 = tested on: UO-31
LXFL 529 = tested on: LXFL 529
M14 = tested on: M14
786-0 = tested on: 786-0
DMS-114 = tested on: DMS-114
TK-10 = tested on: TK-10
CCRF-CEM = tested on: CCRF-CEM
NCI-H460 = tested on: NCI-H460
HOP-62 = tested on: HOP-62
COLO 205 = tested on: COLO 205
K562 = tested on: K562
SF-268 = tested on: SF-268
ACHN = tested on: ACHN
SNB-19 = tested on: SNB-19
SF-295 = tested on: SF-295
DMS-273 = tested on: DMS-273
A498 = tested on: A498
XF498 = tested on: XF498

COc1cc2ccc3c4cc(OC)c(OC(C)C)cc4c[n+](C)c3c2cc1OC
GI50 (HCT-15): > 100 µM | GI50 (DLD-1): > 100 µM (inactive) | GI50 (OVCAR-8): 39.2 µM (inactive) | GI50 (UACC-257): 28.2 µM (inactive) | GI50 (SNB-75): 34 µM (inactive) | GI50 (HT-29): > 100 µM (inactive) | GI50 (SK-MEL-5): 42 µM (inactive) | GI50 (OVCAR-4): 64 µM (inactive) | GI50 (KM12): > 100 µM (inactive) | GI50 (RPMI-8226): > 100 µM (inactive) | GI50 (NCI-H226): 71.3 µM (inactive) | GI50 (HOP-18): 23.4 µM (inactive) | GI50 (HCC 2998): 44.5 µM (inactive) | GI50 (NCI-H23): 95.7 µM (inactive) | GI50 (SW-620): 71.6 µM (inactive) | GI50 (MOLT-4): > 100 µM (inactive) | GI50 (OVCAR-3): 19.7 µM (inactive) | GI50 (CAKI-1): > 100 µM (inactive) | GI50 (KM-20L2): > 100 µM (inactive) | GI50 (UACC-62): 55.2 µM (inactive) | GI50 (U-251): 31.3 µM (inactive) | GI50 (SR): 47.8 µM (inactive) | GI50 (SK-OV-3): > 100 µM (inactive) | GI50 (A549): > 100 µM (inactive) | GI50 (SK-MEL-28): 33.6 µM (inactive) | GI50 (HCT-116): > 100 µM (inactive) | GI50 (SF-539): 40.4 µM (inactive) | GI50 (NCI-H522): 17.4 µM (inactive) | GI50 (LOX IMVI): 54.3 µM (inactive) | GI50 (HOP-92): 36.7 µM (inactive) | GI50 (EKVX): > 100 µM (inactive) | GI50 (SN12C): 31.5 µM (inactive) | GI50 (OVCAR-5): > 100 µM (inactive) | GI50 (SK-MEL-2): 30.8 µM (inactive) | GI50 (IGROV-1): 74.5 µM (inactive) | GI50 (Malme-3M): 48.9 µM (inactive) | GI50 (M19-MEL): 29 µM (inactive) | GI50 (RXF 393): 27.7 µM (inactive) | GI50 (HL-60): 35.1 µM (inactive) | GI50 (UO-31): > 100 µM (inactive) | GI50 (LXFL 529): 14.2 µM (inactive) | GI50 (M14): 64.6 µM (inactive) | GI50 (786-0): 99.3 µM (inactive) | GI50 (DMS-114): 9.64 µM (inactive) | GI50 (TK-10): > 100 µM (inactive) | GI50 (CCRF-CEM): 49.1 µM (inactive) | GI50 (NCI-H460): > 100 µM (inactive) | GI50 (HOP-62): > 100 µM (inactive) | GI50 (COLO 205): 14.5 µM (inactive) | GI50 (K562): 22.7 µM (inactive) | GI50 (SF-268): 32.7 µM (inactive) | GI50 (ACHN): > 100 µM (inactive) | GI50 (SNB-19): > 100 µM (inactive) | GI50 (SF-295): > 100 µM (inactive)

CS(=O)(=O)N(CCC#N)c1ccc(C=O)cc1
GI50 (HCT-15): > 100 µM | GI50 (OVCAR-8): > 100 µM (inactive) | GI50 (UACC-257): > 100 µM (inactive) | GI50 (SNB-75): > 100 µM (inactive) | GI50 (HT-29): > 100 µM (inactive) | GI50 (SK-MEL-5): > 100 µM (inactive) | GI50 (OVCAR-4): > 100 µM (inactive) | GI50 (KM12): > 100 µM (inactive) | GI50 (RPMI-8226): > 100 µM (inactive) | GI50 (NCI-H226): > 100 µM (inactive) | GI50 (HCC 2998): > 100 µM (inactive) | GI50 (SW-620): > 100 µM (inactive) | GI50 (MOLT-4): 92.7 µM (inactive) | GI50 (OVCAR-3): > 100 µM (inactive) | GI50 (CAKI-1): > 100 µM (inactive) | GI50 (DMS-273): > 100 µM (inactive) | GI50 (KM-20L2): > 100 µM (inactive) | GI50 (UACC-62): > 100 µM (inactive) | GI50 (U-251): > 100 µM (inactive) | GI50 (SR): > 100 µM (inactive) | GI50 (SK-OV-3): > 100 µM (inactive) | GI50 (A549): > 100 µM (inactive) | GI50 (A498): > 100 µM (inactive) | GI50 (SK-MEL-28): > 100 µM (inactive) | GI50 (HCT-116): > 100 µM (inactive) | GI50 (SF-539): > 100 µM (inactive) | GI50 (NCI-H522): > 100 µM (inactive) | GI50 (LOX IMVI): > 100 µM (inactive) | GI50 (EKVX): > 100 µM (inactive) | GI50 (SN12C): > 100 µM (inactive) | GI50 (OVCAR-5): > 100 µM (inactive) | GI50 (SK-MEL-2): > 100 µM (inactive) | GI50 (IGROV-1): > 100 µM (inactive) | GI50 (Malme-3M): > 100 µM (inactive) | GI50 (M19-MEL): > 100 µM (inactive) | GI50 (XF498): > 100 µM (inactive) | GI50 (HL-60): > 100 µM (inactive) | GI50 (UO-31): > 100 µM (inactive) | GI50 (LXFL 529): > 100 µM (inactive) | GI50 (M14): > 100 µM (inactive) | GI50 (786-0): > 100 µM (inactive) | GI50 (DMS-114): > 100 µM (inactive) | GI50 (NCI-H460): > 100 µM (inactive) | GI50 (HOP-62): 97.9 µM (inactive) | GI50 (K562): > 100 µM (inactive) | GI50 (SF-268): > 100 µM (inactive) | GI50 (ACHN): > 100 µM (inactive) | GI50 (SNB-19): > 100 µM (inactive) | GI50 (SF-295): > 100 µM (inactive)
